We go through 17 compounds from patent publication US20080234262A1 (Wyeth, priority 2007, published 2008).

One assay concerns the target PI3K (Homo sapiens, UniProt P42336). Briefly: Fluorescence polarization assay for PI3K.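 Further: PI3K kinase reaction on PIP2 with ATP, 30-60 min, product sensed by GST-GRP with red probe in fluorescence polarization (mP), controls without enzyme and at zero time.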 It counts as biochemical. To be noted: PI3Kα; read-out: PI3Kα IC50. In general terms: Polarisation of emitted light reports the rotation of a fluorescent probe.
In the next assay the test system is prostate line LNCap. In words: In vitro cell culture growth assay (MTS), LNCap. It counts as cell-based, human. To be noted: Homo sapiens, LNCaP, 72 h, LNCap cells, three days after drug treatment.
The subject of the next assay is breast line MDA468. In words: In vitro cell culture growth assay (MTS), MDA468. It counts as cell-based, human. To be noted: Homo sapiens, 72 h, MDA468 cells, three days after drug treatment. The procedure, abridged:
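MDA468 or LNCap cells received inhibitors one day after plating and were grown for three days. Viable cell density read by MTS conversion, absorbance 490 nm, expressed as percent of control growth versus vehicle-treated cells on the same plate.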

Sequence of PI3K (P42336 whole entry): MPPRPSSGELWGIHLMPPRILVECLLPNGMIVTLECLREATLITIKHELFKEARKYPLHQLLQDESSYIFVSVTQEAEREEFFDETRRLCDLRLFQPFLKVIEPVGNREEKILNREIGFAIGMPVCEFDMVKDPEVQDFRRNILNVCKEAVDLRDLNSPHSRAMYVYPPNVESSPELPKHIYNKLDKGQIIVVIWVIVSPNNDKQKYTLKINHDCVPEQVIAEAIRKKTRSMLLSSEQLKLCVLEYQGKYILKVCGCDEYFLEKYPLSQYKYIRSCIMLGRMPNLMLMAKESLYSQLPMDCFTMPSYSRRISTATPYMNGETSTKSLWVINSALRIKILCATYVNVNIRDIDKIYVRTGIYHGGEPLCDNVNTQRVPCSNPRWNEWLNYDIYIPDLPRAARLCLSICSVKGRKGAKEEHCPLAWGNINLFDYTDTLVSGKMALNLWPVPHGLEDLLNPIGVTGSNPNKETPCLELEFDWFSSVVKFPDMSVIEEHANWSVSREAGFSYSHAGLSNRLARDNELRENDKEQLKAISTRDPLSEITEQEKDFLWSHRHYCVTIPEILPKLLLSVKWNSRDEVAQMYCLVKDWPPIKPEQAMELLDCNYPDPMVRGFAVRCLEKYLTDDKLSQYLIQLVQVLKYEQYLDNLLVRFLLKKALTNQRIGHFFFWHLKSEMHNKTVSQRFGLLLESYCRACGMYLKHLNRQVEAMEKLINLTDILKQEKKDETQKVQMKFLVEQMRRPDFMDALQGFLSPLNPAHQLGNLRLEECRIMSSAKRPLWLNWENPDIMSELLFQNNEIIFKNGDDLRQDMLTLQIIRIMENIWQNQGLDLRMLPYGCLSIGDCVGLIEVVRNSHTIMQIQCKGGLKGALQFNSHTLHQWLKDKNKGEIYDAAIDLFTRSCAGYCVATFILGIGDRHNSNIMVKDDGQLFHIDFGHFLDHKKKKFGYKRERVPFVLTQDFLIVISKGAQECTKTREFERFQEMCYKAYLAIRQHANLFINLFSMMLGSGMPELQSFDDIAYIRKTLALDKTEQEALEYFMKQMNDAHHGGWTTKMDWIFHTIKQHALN
Sequence of PI3K (P27986 whole entry partner): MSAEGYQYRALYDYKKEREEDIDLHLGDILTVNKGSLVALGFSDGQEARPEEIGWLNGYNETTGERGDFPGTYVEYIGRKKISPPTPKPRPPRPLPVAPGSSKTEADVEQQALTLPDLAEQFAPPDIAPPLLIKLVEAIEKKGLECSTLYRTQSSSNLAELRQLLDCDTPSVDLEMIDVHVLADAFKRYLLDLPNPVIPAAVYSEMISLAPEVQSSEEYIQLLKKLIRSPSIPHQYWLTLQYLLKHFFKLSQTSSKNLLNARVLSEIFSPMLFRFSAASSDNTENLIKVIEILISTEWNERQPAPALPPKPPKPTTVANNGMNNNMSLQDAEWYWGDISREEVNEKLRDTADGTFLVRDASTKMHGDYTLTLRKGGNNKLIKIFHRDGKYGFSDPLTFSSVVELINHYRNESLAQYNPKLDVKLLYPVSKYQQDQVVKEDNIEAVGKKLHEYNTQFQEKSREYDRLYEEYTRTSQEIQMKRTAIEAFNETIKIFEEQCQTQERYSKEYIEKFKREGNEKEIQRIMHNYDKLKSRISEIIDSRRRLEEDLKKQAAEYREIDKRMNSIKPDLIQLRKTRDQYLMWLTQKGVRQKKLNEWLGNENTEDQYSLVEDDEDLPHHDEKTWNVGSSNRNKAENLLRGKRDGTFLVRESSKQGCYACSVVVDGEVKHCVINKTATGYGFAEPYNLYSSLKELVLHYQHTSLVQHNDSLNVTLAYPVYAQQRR

A word on the IC50: it is the concentration that gives 50% inhibition. On to `CNC(=O)Nc1ccc(-c2nc(N3CCOCC3)c3cnn(C4CCN(C(=O)c5ccc(Cl)nc5)CC4)c3n2)cc1` [Example 424, 1-[4-(1-{1-[(6-chloropyridin-3-yl)carbonyl]piperidin-4-yl}-4-morpholin-4-yl-1H-pyrazolo[3,4-d]pyrimidin-6-yl)phenyl]-3-methylurea], for which the IC50 at PI3K came to 84 nM; with prostate line LNCap, 150 nM; in the assay with breast line MDA468 it was 400 nM.

`CNC(=O)Nc1ccc(-c2nc(N3CCOCC3)c3cnn(C4CCN(Cc5ccccc5C)CC4)c3n2)cc1` [Example 429, 1-methyl-3-(4-{1-[1-(2-methylbenzyl)piperidin-4-yl]-4-morpholin-4-yl-1H-pyrazolo[3,4-d]pyrimidin-6-yl}phenyl)urea]: the IC50 at PI3K was 51 nM; with prostate line LNCap, 40 nM; in the assay with breast line MDA468 it was 200 nM.

On to `CNC(=O)Nc1ccc(-c2nc(N3CCOCC3)c3cnn(C4CCN(Cc5cccc(C)c5)CC4)c3n2)cc1` [Example 430, 1-methyl-3-(4-{1-[1-(3-methylbenzyl)piperidin-4-yl]-4-morpholin-4-yl-1H-pyrazolo[3,4-d]pyrimidin-6-yl}phenyl)urea], for which the results for the IC50 on PI3K, in the assay on prostate line LNCap and in the assay with breast line MDA468 were 42 nM, 52 nM and 200 nM, respectively.

In the case of `CNC(=O)Nc1ccc(-c2nc(N3CCOCC3)c3cnn(C4CCN(Cc5ccc(C)cc5)CC4)c3n2)cc1` [Example 431, 1-methyl-3-(4-{1-[1-(4-methylbenzyl)piperidin-4-yl]-4-morpholin-4-yl-1H-pyrazolo[3,4-d]pyrimidin-6-yl}phenyl)urea], the IC50 came out at 25 nM on PI3K, 27 nM in the assay on prostate line LNCap and 100 nM with breast line MDA468.

In the case of `c1ccc(-n2ncc3c(N4CCOCC4)nc(-c4ccc5[nH]ncc5c4)nc32)cc1` [Example 432, 6-(1H-indazol-5-yl)-4-morpholin-4-yl-1-phenyl-1H-pyrazolo[3,4-d]pyrimidine], the IC50 was 440 nM on PI3K, 20000 nM in the assay with prostate line LNCap and 60000 nM in the assay on breast line MDA468.

`COC(=O)Nc1ccc(-c2nc(N3CCOCC3)c3cnn(C4CCN(C(=O)c5ccccn5)CC4)c3n2)cc1` [Example 441, methyl (4-{4-morpholin-4-yl-1-[1-(pyridin-2-ylcarbonyl)piperidin-4-yl]-1H-pyrazolo[3,4-d]pyrimidin-6-yl}phenyl)carbamate]: the half-inhibitory concentration (IC50) stood at 1920 nM on PI3K, 200 nM in the assay on prostate line LNCap and 600 nM with breast line MDA468.

As for `COC(=O)Nc1ccc(-c2nc(N3CCOCC3)c3cnn(C4CCN(C(=O)c5ccccc5)CC4)c3n2)cc1` [Example 442, methyl {4-[1-(1-benzoylpiperidin-4-yl)-4-morpholin-4-yl-1H-pyrazolo[3,4-d]pyrimidin-6-yl]phenyl}carbamate], the figures for the IC50 at PI3K, in the assay with prostate line LNCap and with breast line MDA468 were 1010 nM, 150 nM and 500 nM, respectively.

`COC(=O)Nc1ccc(-c2nc(N3CCOCC3)c3cnn(C4CCN(C(=O)c5ccccc5F)CC4)c3n2)cc1` [Example 443, methyl (4-{1-[1-(2-fluorobenzoyl)piperidin-4-yl]-4-morpholin-4-yl-1H-pyrazolo[3,4-d]pyrimidin-6-yl}phenyl)carbamate]: the IC50 was determined as 1140 nM at PI3K, 250 nM in the assay on prostate line LNCap and 500 nM in the assay with breast line MDA468.

In the case of `COC(=O)Nc1ccc(-c2nc(N3CCOCC3)c3cnn(C4CCN(C(=O)c5ccccc5Cl)CC4)c3n2)cc1` [Example 444, methyl (4-{1-[1-(2-chlorobenzoyl)piperidin-4-yl]-4-morpholin-4-yl-1H-pyrazolo[3,4-d]pyrimidin-6-yl}phenyl)carbamate], the values for the IC50 on PI3K, with prostate line LNCap and in the assay with breast line MDA468 were 778 nM, 250 nM and 800 nM, respectively.

On to `COC(=O)Nc1ccc(-c2nc(N3CCOCC3)c3cnn(C4CCN(C(=O)c5ccc(F)cc5)CC4)c3n2)cc1` [Example 445, methyl (4-{1-[1-(4-fluorobenzoyl)piperidin-4-yl]-4-morpholin-4-yl-1H-pyrazolo[3,4-d]pyrimidin-6-yl}phenyl)carbamate], for which the IC50 came out at 989 nM on PI3K, 580 nM with prostate line LNCap and 1600 nM in the assay with breast line MDA468.

Turning to `COC(=O)Nc1ccc(-c2nc(N3CCOCC3)c3cnn(C4CCN(C(=O)c5ccccc5OC)CC4)c3n2)cc1` [Example 446, methyl (4-{1-[1-(2-methoxybenzoyl)piperidin-4-yl]-4-morpholin-4-yl-1H-pyrazolo[3,4-d]pyrimidin-6-yl}phenyl)carbamate], the values for the IC50 at PI3K, in the assay with prostate line LNCap and with breast line MDA468 were 888 nM, 350 nM and 900 nM, respectively.

On to `COC(=O)Nc1ccc(-c2nc(N3CCOCC3)c3cnn(C4CCN(C(=O)c5ccc(F)cc5F)CC4)c3n2)cc1` [Example 449, methyl (4-{1-[1-(2,4-difluorobenzoyl)piperidin-4-yl]-4-morpholin-4-yl-1H-pyrazolo[3,4-d]pyrimidin-6-yl}phenyl)carbamate], for which the half-inhibitory concentration (IC50) on PI3K was found to be 800 nM; in the assay with prostate line LNCap it was 500 nM; in the assay with breast line MDA468 it was 1200 nM.

On to `COC(=O)Nc1ccc(-c2nc(N3CCOCC3)c3cnn(C4CCN(Cc5ccc(Cl)nc5)CC4)c3n2)cc1` [Example 454, methyl [4-(1-{1-[(6-chloropyridin-3-yl)methyl]piperidin-4-yl}-4-morpholin-4-yl-1H-pyrazolo[3,4-d]pyrimidin-6-yl)phenyl]carbamate], for which the IC50 on PI3K turned out to be 619 nM; with prostate line LNCap it was 740 nM; with breast line MDA468, 2000 nM.

Take `CCNC(=O)Nc1ccc(-c2nc(N3CCOCC3)c3cnn(C4CCN(C(=O)c5cccnc5)CC4)c3n2)c(F)c1` [Example 462, 1-ethyl-3-(3-fluoro-4-{4-morpholin-4-yl-1-[1-(pyridin-3-ylcarbonyl)piperidin-4-yl]-1H-pyrazolo[3,4-d]pyrimidin-6-yl}phenyl)urea]: the IC50 at PI3K was determined as 1620 nM; with prostate line LNCap, 900 nM; with breast line MDA468 it was 900 nM.

Consider `O=C(NCCF)Nc1ccc(-c2nc(N3CCOCC3)c3cnn(C4CCN(C(=O)c5cccnc5)CC4)c3n2)c(F)c1` [Example 463, 1-(2-fluoroethyl)-3-(3-fluoro-4-{4-morpholin-4-yl-1-[1-(pyridin-3-ylcarbonyl)piperidin-4-yl]-1H-pyrazolo[3,4-d]pyrimidin-6-yl}phenyl)urea], for which the IC50 on PI3K amounted to 1730 nM; in the assay with prostate line LNCap, 1200 nM; in the assay with breast line MDA468, 1200 nM.

With `CCNC(=O)Nc1cc(F)c(-c2nc(N3CCOCC3)c3cnn(C4CCN(C(=O)c5cccnc5)CC4)c3n2)cc1F` [Example 466, 1-(2,5-difluoro-4-{4-morpholin-4-yl-1-[1-(pyridin-3-ylcarbonyl)piperidin-4-yl]-1H-pyrazolo[3,4-d]pyrimidin-6-yl}phenyl)-3-ethylurea], the values for the IC50 on PI3K, with prostate line LNCap and in the assay with breast line MDA468 were 3110 nM, 1050 nM and 3300 nM, respectively.

`O=C(NCCF)Nc1cc(F)c(-c2nc(N3CCOCC3)c3cnn(C4CCN(C(=O)c5cccnc5)CC4)c3n2)cc1F` [Example 467, 1-(2,5-difluoro-4-{4-morpholin-4-yl-1-[1-(pyridin-3-ylcarbonyl)piperidin-4-yl]-1H-pyrazolo[3,4-d]pyrimidin-6-yl}phenyl)-3-(2-fluoroethyl)urea]: the IC50 was 2980 nM on PI3K, 1200 nM in the assay on prostate line LNCap and 2200 nM in the assay on breast line MDA468.
